# Experimental data published in patent US7217776B1, “pH-sensitive methacrylic copolymer gels and the production thereof” (Iowa State University Research Foundation, priority 2003, dated 2007).
# Test system: NIH/3T3 mouse fibroblasts
# Test: Cytotoxicity elution test
# Assay type: cell-based
# Conditions: 24 hours incubation; 3 mg/L, 0.3 mg/L and 0.03 mg/L
# Procedure: Elution tests were performed on one sample of the pentablock material to assess the cytotoxic properties of the pentablock copolymers. Approximately 30 mg of the polymers to be tested were dissolved in 100 ml of low-glucose Dulbecco's modified eagle medium (DMEM, Sigma) with 10% fetal bovine serum (FBS, Sigma), 10 μg/ml insulin (Sigma), 10 units/ml penicillin/streptomycin (Sigma), and 100 μg/ml L-ascorbic acid (Sigma). This solution was diluted to achieve the desired polymer concentration for all tests.
# NIH/3T3 mouse fibroblasts were grown in polystyrene flasks until reaching confluence at 150 cells/mm. The growth media was removed from the flasks and replaced with one of the following: DMEM (negative control), DMEM with phenol (positive control), DMEM with the pentablock material. The concentrations of the pentablock material and phenol were 3 mg/L, 0.3 mg/L and 0.03 mg/L.
# After 24 hours of incubation in a humidified incubator with 5% CO2 at 37° C. the samples were removed and the media was replaced with Kamovsky's fixative (2.5% glutaraldehyde, 2.0% paraformaldehyde, 0.1M sodium cacodylate) for 12 hours. The samples were then stained with a 20% crystal violet dye (CVD) solution in ethanol for 6 hours followed by dehydration with ethanol. […]
smiles,measurement,value
Oc1ccccc1 [phenol],"cytotoxic response (cell density, morphology, adherence relative to controls)",result expected for a cytotoxic material
